Reference: patent US20240166643A1, “IMIDAZO[1,2-A]PYRIDINE COMPOUNDS AND THEIR USE IN THERAPY” (Imperial College Innovations Limited, priority 2020, published 2024)
Like-named read-outs stand apart in the source and are kept apart here. Marks after values point to notes of the source that are not given here.

Key:
[1] = target: T1, Plasmodium vivax (Pv) NMT (Plasmodium vivax (strain Salvador I), UniProt A5K1A2)
[2] = target: Human NMT1 (HsNMT1) (Homo sapiens, UniProt P30419)
[3] = tested on: Raji cells; assay: CellTiter-Blue assay, Raji; format: cell-based; conditions: Homo sapiens, Raji cell line, 72 hours
Protocol: (§1) Assay (d): CellTiter-Blue® Assay
(§2) BL-41, Ramos, Raji and A20 cells (obtained from Cell Services at the Crick Institute; cell type of BL-41, Ramos, Raji: Burkitt's Lymphoma; cell type of A20: murine B cell lymphoma cell line) were grown in RPMI-1640 media in 5% CO2 (supplemented with 10% FBS). The cells were seeded in 96-well plates, 24 h prior to treatment. Cell suspensions were prepared by adjusting the cell density to the appropriate concentration (as stated in the Table 9 below) and 50 μL of the cell suspension was transferred to wells B-G in columns 2-11 of a 96-well plate. […]
(§3) 72 hours later, 20 μl/well CellTiter-Blue® (G8081, Promega) were added to the plates according to the manufacturer's protocol, the plate was incubated at 37° C. for 2 or 3-4 h (A20, Ramos and Raji: 2 h; BL-41 and EL-4: 3-4 h), followed by measuring the absorbance per well at 570 nm using an EnVision plate reader. […] The metabolic activity was calculated as a percentage relative to the positive control. The EC50 values were calculated using GraphPad Prism.

[4] = in vitro; conditions: male, Sprague-Dawley, rat, pooled cryopreserved rat hepatocytes, pH 7.4
[5] = tested on: BL-41 cells; assay: CellTiter-Blue assay, BL-41; format: cell-based; conditions: Homo sapiens, BL41 cell line, 72 hours
Protocol: as §1, §2, §3

[6] = tested on: Plasmodium falciparum 3D7; assay: SYBR Green assay, Plasmodium falciparum strain 3D7; format: cell-based; conditions: P. falciparum strain 3D7, 96 h incubation, read-out: Pf EC50 strain 3D7
[7] = Rat clearance and bioavailability (iv and oral dosing); format: in vivo; conditions: male, Sprague-Dawley, plasma, administered as a single compound
[8] = tested on: Ramos cells; assay: CellTiter-Blue assay, Ramos; format: cell-based; conditions: Homo sapiens, Ramos cell line, 72 hours
Protocol: as §1, §2, §3

[9] = tested on: EL4 cells; assay: CellTiter-Blue assay, EL4; format: cell-based; conditions: EL4 cell line, 72 hours
Protocol: as §1
Cell suspensions were prepared by adjusting the cell density to the appropriate concentration (as stated in the Table 10 below) and 50 μL of the cell suspension was transferred to wells B-G in columns 2-11 of a 96-well plate.
For each the BL-41, Ramos, Raji, A20 cell lines and EL4, twenty-four hours later, 50 μL of the growth media for the respective cell line (positive control), a mix of Puromycin and Staurosporine (negative controls, final concentration 10 μg/mL and 1 μM respectively) or different concentrations of each Example compound being tested (dilution factor=3, starting at μM, final concentration in the plate starting from 10 μM) were prepared and added to a well of the 96-well plate. The plate was incubated at 37° C. with 5% CO2 level.
72 hours later, 20 μl/well CellTiter-Blue® (G8081, Promega) were added to the plates according to the manufacturer's protocol, the plate was incubated at 37° C. for 2 or 3-4 h (A20, Ramos and Raji: 2 h; BL-41 and EL-4: 3-4 h), followed by measuring the absorbance per well at 570 nm using an EnVision plate reader. The negative control values were subtracted from every value. The metabolic activity was calculated as a percentage relative to the positive control. The EC50 values were calculated using GraphPad Prism.

[10] = tested on: BL-41 cells; assay: Metabolic activity assay (MTS assay) in BL-41 cell line; format: cell-based; conditions: Homo sapiens, 72 h
[11] = target: T1, Plasmodium vivax (Pv) NMT; assay: biochemical
[12] = tested on: A20 cells; assay: CellTiter-Blue assay, A20; format: cell-based, murine; conditions: Mus musculus, A20 cell line, 72 hours
Protocol: as §1, §2, §3

[13] = tested on: P. falciparum Pf3D7^0087/N9; assay: Mouse malaria model, NODscidIL2Rγnull mice engrafted with human erythrocytes; conditions: for activity compared to untreated control mice: day 7 post-infection
[14] = tested on: SU-DHL-10 cells; assay: Cell cytotoxicity in SU-DHL-10 cell line (CellTiter-Glo); format: cell-based; conditions: Homo sapiens, SU-DHL10; CellTiter-Glo, 48 h; read-out: SU-DHL-10 EC50
[15] = tested on: Shep-ER-N-Myc cell line; assay: CellTiter-Blue assay, Shep-ER-N-Myc with or without MYCN induction; format: cell-based, human; conditions: 72 hours
Text: as §1
(§4) Shep-ER-N-Myc cell line (cell type: human neuroblastoma) was sourced from Linda Valentijn, and firstly reported in Valentijn et. al., Cancer Res, 2005, 65(8), 3136-3145. SKNAS-ER-N-Myc cell line (cell type: human neuroblastoma) was sourced from Michael D. Hogarty, and firstly reported in Ushmorov et al., Oncogene, 2008, 27(24), 3424-3434. P-493-6 cell line was sourced from Chi Van Dang, and firstly reported in Pajic et. al., Int J Cancer, 2000, 87(6), 787-793. P-493-6 cell line is a non-transformed B cell line that can be genetically engineered to have either “low” levels of c-Myc, “medium” levels of c-Myc or “high” levels of c-Myc. The terms “low”, “medium” and “high” are descriptors commonly used in the art and will be readily understood to mean: • i) “low” levels of c-Myc—a level of MYC expression which represents non-proliferating normal cells (i.e. a level of MYC expression not sufficient to cause the cycling of the cells); • ii) “medium” levels of c-Myc—a level of MYC expression which represents normal proliferating cells; and • iii) “high” levels of c-Myc—a level of MYC expression which represents enforced/deregulated expression of c-Myc, typically observed in cancerous cells. […]
For Shep cells, the experiment was performed in a 96 well plate and in technical quadruplicate. […] The fluorescence was measured at 570 nm using an EnVision™ plate reader. […]

[16] = tested on: SKNAS-ER-N-Myc cell line; assay: CellTiter-Blue assay, SKNAS-ER-N-Myc with or without MYCN induction; format: cell-based, human
Text: as §1, §4
For SKNAS cells, the experiment was performed in a 48 well plate and in technical triplicate. […] The fluorescence was measured at 570 nm using an EnVision™ plate reader. […]

[17] = tested on: P-493-6 cell line; assay: CellTiter-Blue assay, P-493-6 with low, medium or high c-Myc; format: cell-based, human; conditions: 72 hours, different expression levels of c-Myc induced
Text: as §1, §4

T1 sequence (A5K1A2 1-410): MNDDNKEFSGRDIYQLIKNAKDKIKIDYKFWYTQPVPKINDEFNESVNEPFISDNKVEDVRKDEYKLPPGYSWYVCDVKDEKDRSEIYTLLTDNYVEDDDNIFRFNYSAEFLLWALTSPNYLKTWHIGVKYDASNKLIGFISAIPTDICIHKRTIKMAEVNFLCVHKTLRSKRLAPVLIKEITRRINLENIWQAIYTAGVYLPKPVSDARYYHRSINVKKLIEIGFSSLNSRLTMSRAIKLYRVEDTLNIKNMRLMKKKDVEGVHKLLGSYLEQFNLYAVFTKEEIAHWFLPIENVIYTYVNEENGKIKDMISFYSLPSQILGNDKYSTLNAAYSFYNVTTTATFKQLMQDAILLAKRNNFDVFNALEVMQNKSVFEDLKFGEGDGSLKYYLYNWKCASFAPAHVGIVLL
Sequence of Human NMT1 (HsNMT1) (P30419 whole entry, looked up): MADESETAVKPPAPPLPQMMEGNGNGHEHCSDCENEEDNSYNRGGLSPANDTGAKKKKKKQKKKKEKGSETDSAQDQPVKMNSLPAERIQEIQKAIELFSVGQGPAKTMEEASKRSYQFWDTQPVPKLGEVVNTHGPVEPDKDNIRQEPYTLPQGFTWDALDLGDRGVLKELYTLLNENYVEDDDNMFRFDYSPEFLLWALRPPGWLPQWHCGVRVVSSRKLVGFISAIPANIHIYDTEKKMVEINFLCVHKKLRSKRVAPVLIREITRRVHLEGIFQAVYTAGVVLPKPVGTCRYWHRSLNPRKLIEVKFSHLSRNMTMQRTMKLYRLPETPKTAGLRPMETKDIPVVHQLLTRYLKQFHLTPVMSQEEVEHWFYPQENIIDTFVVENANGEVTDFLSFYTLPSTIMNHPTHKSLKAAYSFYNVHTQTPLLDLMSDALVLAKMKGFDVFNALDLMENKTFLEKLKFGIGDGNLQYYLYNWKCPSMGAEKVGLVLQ

`Cc1cnc(CNC(=O)C2CN(c3nc(NCCN(C)C)ncc3Cl)C2)cn1` [Comparative Example 1, reference compound] gave an IC50 [1] of 8400 nM and an IC50 [2] of 46000 nM.

Compound `CN(C)CCNc1ncc(Cl)c(N2CC(C(=O)NCc3ccc(F)cc3F)C2)n1` [Comparative Example 2] has an IC50 [1] of 2000 nM.

With `C[C@@H]1CN(c2ncc(Cl)c(N3CC(C(=O)NC(C)(C)c4cnc5ccccn45)C3)n2)CCN1C` [Example 3, 1-(5-chloro-2-[(3R)-3,4-dimethylpiperazin-1-yl]pyrimidin-4-yl}-N-(2-{imidazo[1,2-a]pyridin-3-yl}propan-2-yl)azetidine-3-carboxamide] the EC50 [3] was 1100 nM, the half-life at 1 µM [4] was 2.05 h and the EC50 [5] was 218 nM. The EC50 [6] was 11 nM, the half-life ([7]; iv 2 mg/kg, read-out: Rat iv t1/2 (converted)) was 4.3 h and the bioavailability ([7]; oral 20 mg/kg) was 24%. The EC50 [8] was 2290 nM, the EC50 [9] was 1240 nM and the EC50 [10] was 560 nM. The IC50 [11] was 3.4 nM, the EC50 [12] was 6880 nM and the “activity compared to untreated control mice” value ([13]; 4×3 mg/kg p.o.) was 4%. The “activity compared to untreated control mice” value ([13]; 4×10 mg/kg p.o.) was 37%, the “mice / smears parasite free” value ([13]; 4×30 mg/kg p.o., day 7) was “all mice were parasite-free” and the “activity compared to untreated control mice” value ([13]; 4×30 mg/kg p.o.) was over 99.9%. For the same compound, the EC50 [14] was 624 nM.

Work on `C[C@@H]1CN(c2ncc(F)c(N3CC(C(=O)N(C)C(C)(C)c4cnc5ccccn45)C3)n2)CCN1C` [Example 102, 1-{2-[(3R)-3,4-dimethylpiperazin-1-yl]-5-fluoropyrimidin-4-yl}-N-(2-{imidazo[1,2-a]pyridin-3-yl}propan-2-yl)-N-methylazetidine-3-carboxamide] yielded a half-life at 1 µM [4] of 0.242 h, an EC50 [6] of over 1000 nM and an IC50 [2] of 72 nM. It also gave an IC50 [11] of 24 nM.

For `C[C@H]1CN(C)CCN1c1ncc(Cl)c(N2CC(C(=O)NC(C)(C)c3cnc4ccccn34)C2)n1` [Example Compound 2], the “metabolic viability of the Shep-ER-N-MYC cell line” value [15] was “clear loss in metabolic viability when the cells have induction of MYCN” and the “metabolic viability of the SKNAS-ER-N-MYC cell line” value [16] was “clear loss in metabolic viability when the cells have induction of MYCN”.

With `C[C@@H]1CN(c2ncc(Cl)c(N3CC(C(=O)NC(C)(C)c4cnc5ccccn45)C3)n2)CCN1C` [Example Compound 3] the “metabolic viability of the Shep-ER-N-MYC cell line” value [15] was “clear loss in metabolic viability when the cells have induction of MYCN”, the “metabolic viability of the SKNAS-ER-N-MYC cell line” value [16] was “clear loss in metabolic viability when the cells have induction of MYCN” and the average parasitemia values ([13]; 3 mg/kg po per day on day 3, 4, 5 and 6 post-infection, day 0 post infection) was 0.01%. The average parasitemia values ([13]; 3 mg/kg po per day on day 3, 4, 5 and 6 post-infection, day 3 post infection) was 1.49%, the average parasitemia values ([13]; 3 mg/kg po per day on day 3, 4, 5 and 6 post-infection, day 4 post infection) was 4.77% and the average parasitemia values ([13]; 3 mg/kg po per day on day 3, 4, 5 and 6 post-infection, day 5 post infection) was 6.73%. The average parasitemia values ([13]; 3 mg/kg po per day on day 3, 4, 5 and 6 post-infection, day 6 post infection) was 10.66%, the average parasitemia values ([13]; 3 mg/kg po per day on day 3, 4, 5 and 6 post-infection, day 7 post infection) was 11.25% and the average parasitemia values ([13]; 10 mg/kg po per day on day 3, 4, 5 and 6 post-infection, day 0 post infection) was 0.01%. The average parasitemia values ([13]; 10 mg/kg po per day on day 3, 4, 5 and 6 post-infection, day 3 post infection) was 1.37%, the average parasitemia values ([13]; 10 mg/kg po per day on day 3, 4, 5 and 6 post-infection, day 4 post infection) was 2.40% and the average parasitemia values ([13]; 10 mg/kg po per day on day 3, 4, 5 and 6 post-infection, day 5 post infection) was 4.21%. The average parasitemia values ([13]; 10 mg/kg po per day on day 3, 4, 5 and 6 post-infection, day 6 post infection) was 6.09%, the average parasitemia values ([13]; 10 mg/kg po per day on day 3, 4, 5 and 6 post-infection, day 7 post infection) was 7.35% and the average parasitemia values ([13]; 30 mg/kg po per day on day 3, 4, 5 and 6 post-infection, day 0 post infection) was 0.01%. It also gave an average parasitemia values ([13]; 30 mg/kg po per day on day 3, 4, 5 and 6 post-infection, day 3 post infection) of 0.60%, an average parasitemia values ([13]; 30 mg/kg po per day on day 3, 4, 5 and 6 post-infection, day 4 post infection) of 0.18% and an average parasitemia values ([13]; 30 mg/kg po per day on day 3, 4, 5 and 6 post-infection, day 5 post infection) of 0.02%. For the same compound, the average parasitemia values ([13]; 30 mg/kg po per day on day 3, 4, 5 and 6 post-infection, day 6 post infection) was 0.01%, the average parasitemia values ([13]; 30 mg/kg po per day on day 3, 4, 5 and 6 post-infection, day 7 post infection) was 0.00* % and the “metabolic viability of the P-493-6 cell line” value [17] was “clear MYC-dependent loss in metabolic viability”.
